Source: patent US20220041588A1, “SUBSTITUTED IMIDAZO[1,2-A]PYRIDINE AND [1,2,4]TRIAZOLO[1,5-A]PYRIDINE COMPOUNDS AS RET KINASE INHIBITORS” (FOCHON PHARMACEUTICALS, LTD., priority 2018, published 2022)

Tests used:
TT (RET C634W) cells = assay: Cell proliferation assay (MTS), TT cells; type: cell-based; conditions: Homo sapiens, TT, 72 h, 72 h incubation, MTS readout
Description: (§1) MTS testing kit was purchased from Promega. The RPMI-1640, F12, F12K, Fetal bovine serum and Penicillin-Streptomycin were purchased from BI. Glutamine and Dimethyl sulfoxide (DMSO) were purchased from Sigma. TT cells were cultured in F12K supplemented with 10% FBS and LC-2/ad cells were cultured in HamF12: RPMI1640 (1:1) supplemented with 10% FBS and 2 mM Glutamine.
(§2) To investigate whether a compound is able to inhibit the activity of RET fusion and/or mutation in cells, a mechanism-based assay using TT (RET C634W) and LC-2/ad (CCDCl6-RET) cell lines was developed. In this assay, the inhibition of RET fusion and/or mutation was reflected by the inhibition of cell proliferation of TT and LC-2/ad cells. Cells were plated into 96-well plates at the optimized cell density (TT: 5000 cells/well; LC-2/ad: 5000 cells/well). Plates were incubated at 37° C., with 5% CO2 for 24 h. Compounds were serially diluted and added to the plates with the final concentrations as 10000, 3333.3, 1111.1, […], 123.5, 41.2, 13.7, 4.6 and 1.5 nM. Plates were incubated at 37° C., with 5% CO2 for 72 h. An aliquot of 20 μL MTS/100 μL medium mixture solution were added to each well and the plates were incubated for exactly 2 h. The reaction was stopped by adding 25 μL 10% SDS to each well. The absorbance was measured by a microplate reader at 490 nm and 650 nm (reference wavelength). IC50 was calculated using GraphPad Prism 5.0.

[1] = system: LC-2/ad (CCDCl6-RET) cells; assay: Cell proliferation assay (MTS), LC-2/ad cells; type: cell-based; conditions: Homo sapiens, LC-2-ad, 72 h, LC-2/ad cells (CCDCl6-RET), 72 h incubation, MTS readout
Description: as §1, §2

Structure (SMILES)	IC50 (TT (RET C634W) cells)	IC50 [1]
COc1ccc(C(=O)N2CCN(c3ccc(-c4cc(-c5cnn(C)c5)cc5ncc(C#N)n45)cn3)CC2)cn1 [Example 2, 5-(6-(4-(6-Methoxynicotinoyl)piperazin-1-yl)pyridin-3-yl)-7-(1-methyl-1H-pyrazol-4-yl)imidazo[1,2-a]pyridine-3-carbonitrile]	63 nM	54 nM
Cc1cccc(CN2CCN(c3ccc(-c4cc(-c5cnn(C)c5)cc5ncc(C#N)n45)cn3)CC2)n1 [Example 5, 7-(1-methyl-1H-pyrazol-4-yl)-5-(6-(4-((6-methylpyridin-2-yl)methyl)pi-perazin-1-yl)pyridin-3-yl)imidazo[1,2-a]pyridine-3-carbonitrile]	71 nM	80 nM
COc1ccc(CN2CCN(c3ccc(-c4cc(-c5cnn(C)c5)cc5ncc(C#N)n45)cn3)CC2)cn1 [Example 6, 5-(6-(4-((6-methoxypyridin-3-yl)meth-yl)piperazin-1-yl)pyridin-3-yl)-7-(1-methyl-1H-pyrazol-4-yl)imidazo[1,2-a]pyridine-3-carbonitrile]	42 nM	44 nM
Cn1cc(-c2cc(-c3ccc(N4CCN(C(=O)[C@H](O)c5ccccc5)CC4)nc3)n3c(C#N)cnc3c2)cn1 [Example 7, (R)-5-(6-(4-(2-hydroxy-2-phenylace-tyl)piperazin-1-yl)pyridin-3-yl)-7-(1-methyl-1H-pyrazol-4-yl)imidazo[1,2-a]pyridine-3-carbonitrile]	11 nM	16 nM
CO[C@@H](C(=O)N1CCN(c2ccc(-c3cc(-c4cnn(C)c4)cc4ncc(C#N)n34)cn2)CC1)c1ccccc1 [Example 14, (R)-5-(6-(4-(2-methoxy-2-phenylace-tyl)piperazin-1-yl)pyridin-3-yl)-7-(1-methyl-1H-pyrazol-4-yl)imidazo[1,2-a]pyridine-3-carbonitrile]	6 nM	13 nM
CC(C)[C@@H](O)C(=O)N1CCN(c2ccc(-c3cc(-c4cnn(C)c4)cc4ncc(C#N)n34)cn2)CC1 [Example 17, (R)-5-(6-(4-(2-hydroxy-3-methylbuta-noyl)piperazin-1-yl)pyridin-3-yl)-7-(1-methyl-1H-pyrazol-4-yl)imidazo [1,2-a]pyridine-3-carbonitrile]	48 nM	45 nM
Cn1cc(-c2cc(-c3ccc(N4CCC(Oc5ccccn5)CC4)nc3)n3c(C#N)cnc3c2)cn1 [Example 18, 7-(1-methyl-1H-pyrazol-4-yl)-5-(6-(4-(pyridin-2-yloxy)piperidin-1-yl)pyr-idin-3-yl)imidazo[1,2-a]pyridine-3-carbonitrile]	1 nM	2 nM
COc1ccc(OC2CCN(c3ccc(-c4cc(-c5cnn(C)c5)cc5ncc(C#N)n45)cn3)CC2)nn1 [Example 19, 5-(6-(4-((6-methoxypyridazin-3-yl)oxy)piperidin-1-yl)pyridin-3-yl)-7-(1-methyl-1H-pyrazol-4-yl)imidazo[1,2-a]pyridine-3-carbonitrile]	1 nM	6 nM
Cc1ccc(OC2CCN(c3ccc(-c4cc(-c5cnn(C)c5)cc5ncc(C#N)n45)cn3)CC2)nn1 [Example 20, 7-(1-methyl-1H-pyrazol-4-yl)-5-(6-(4-((6-methylpyridazin-3-yl)oxy)piper-idin-1-yl)pyridin-3-yl)imidazo[1,2-a]pyridine-3-carbonitrile]	6 nM	17 nM
Cn1cc(-c2cc(-c3ccc(N4CCC(O)(Cc5ccccn5)CC4)nc3)n3c(C#N)cnc3c2)cn1 [Example 21, 5-(6-(4-hydroxy-4-(pyridin-2-ylmeth-yl)piperidin-1-yl)pyridin-3-yl)-7-(1-methyl-1H-pyrazol-4-yl)imidazo[1,2-a]pyridine-3-carbonitrile]	12 nM	12 nM
Cn1cc(-c2cc(-c3ccc(N4CCC(O)(Cc5ccccc5)CC4)nc3)n3c(C#N)cnc3c2)cn1 [Example 22, 5-(6-(4-benzyl-4-hydroxypiperidin-1-yl)pyridin-3-yl)-7-(1-methyl-1H-pyr-azol-4-yl)imidazo[1,2-a]pyridine-3-carbonitrile]	4 nM	1 nM
COc1ccc(CN2CCN(c3ccc(-c4cc(-c5cnn(CCN6CCOCC6)c5)cc5ncc(C#N)n45)cn3)CC2)cn1 [Example 26, 5-(6-(4-((6-methoxypyridin-3-yl)meth-yl)piperazin-1-yl)pyridin-3-yl)-7-(1-(2-morpholinoethyl)-1H-pyrazol-4-yl)imidazo[1,2-a]pyridine-3-carbonitrile]	74 nM	89 nM
C#Cc1ccc(OC2CCN(c3ccc(-c4cc(OCC5(O)CC5)cc5ncc(C#N)n45)cn3)CC2)cn1 [Example 81, 5-(6-(4-((6-ethynylpyridin-3-yl)oxy)piper-idin-1-yl)pyridin-3-yl)-7-((1-hydroxycyclo-propyl)methoxy)imidazo-[1,2-a]pyridine-3-carbonitrile]	5 nM	
C=Cc1ccc(OC2CCN(c3ccc(-c4cc(OCC(C)(C)O)cc5ncc(C#N)n45)cn3)CC2)cn1 [Example 82, 7-(2-hydroxy-2-methylpropoxy)-5-(6-(4-((6-vinylpyridin-3-yl)oxy)piperidin-1-yl)pyridin-3-yl)imidazo[1,2-a]pyridine-3-car-bonitrile]	15 nM	
C=Cc1ccc(OC2CCN(c3ccc(-c4cc(OCC5(O)CC5)cc5ncc(C#N)n45)cn3)CC2)cn1 [Example 83, 7-((1-hydroxycyclopropyl)methoxy)-5-(6-(4-((6-vinylpyridin-3-yl)oxy)piperidin-1-yl)pyridin-3-yl)imidazo[1,2-a]pyridine-3-carbonitrile]	17 nM	
CC(C)(O)COc1cc(-c2ccc(N3CCC(Oc4ccc(OC5CC5)nc4)CC3)nc2)n2c(C#N)cnc2c1 [Example 84, 5-(6-(4-((6-cyclopropoxypyridin-3-yl)oxy)piperidin-1-yl)pyridin-3-yl)-7-(2-hydroxy-2-methylpropoxy)imidazo[1,2-a]pyri-dine-3-carbonitrile]	21 nM	
N#Cc1cnc2cc(OCC3(O)CC3)cc(-c3ccc(N4CCC(Oc5ccc(OC6CC6)nc5)CC4)nc3)n12 [Example 85, 5-(6-(4-((6-cyclopropoxypyridin-3-yl)oxy)piperidin-1-yl)pyridin-3-yl)-7-((1-hy-droxycyclopropyl)methoxy)imidazo[1,2-a] pyridine-3-carbonitrile]	12 nM	
COc1ncc(OC2CCN(c3ccc(-c4cc(OCC5(O)CC5)cc5ncc(C#N)n45)cn3)CC2)cc1F [Example 87, 5-(6-(4-((5-fluoro-6-methoxypyridin-3-yl)oxy)piperidin-1-yl)pyridin-3-yl)-7-((1-hydroxycyclopropyl)methoxy)imidazo[1,2-a]pyridine-3-carbonitrile]	38 nM	
CCOc1ccc(OC2CCN(c3ccc(-c4cc(OCC(C)(C)O)cc5ncc(C#N)n45)cn3)CC2)cn1 [Example 88, 5-(6-(4-((6-ethoxypyridin-3-yl)oxy)piperi-din-1-yl)pyridin-3-yl)-7-(2-hydroxy-2-meth-ylpropoxy)imidazo[1,2-a]pyridine-3-car-bonitrile]	2 nM	
COc1ccc(O[C@H]2CCN(c3ccc(-c4cc(OCC(C)(C)O)cc5ncc(C#N)n45)cn3)C2)cn1 [Example 89, (S)-7-(2-hydroxy-2-methylpropoxy)-5-(6-(3-((6-methoxypyridin-3-yl)oxy)pyrrolidin-1-yl)pyridin-3-yl)imidazo[1,2-a]pyridine-3-carbonitrile]	45 nM	
COc1ccc(O[C@H]2CCN(c3ccc(-c4cc(OCC5(O)CC5)cc5ncc(C#N)n45)cn3)C2)cn1 [Example 90, (S)-7-((1-hydroxycyclopropyl)methoxy)-5-(6-(3-((6-methoxypyridin-3-yl)oxy)pyr-rolidin-1-yl)pyridin-3-yl)imidazo[1,2-a] pyridine-3-carbonitrile]	13 nM	
COc1ccc(OC2CN(c3ccc(-c4cc(OCC5(O)CC5)cc5ncc(C#N)n45)cn3)C2)cn1 [Example 92, 7-((1-hydroxycyclopropyl)methoxy)-5-(6-(3-((6-methoxypyridin-3-yl)oxy)azetidin-1-yl)pyridin-3-yl)imidazo[1,2-a]pyridine-3-carbonitrile]	87 nM	
COc1ccc(OC2CN(c3ccc(-c4cc(OCC(C)(C)O)cc5ncc(C#N)n45)cn3)C2)cn1 [Example 93, 7-(2-hydroxy-2-methylpropoxy)-5-(6-(3-((6-methoxypyridin-3-yl)oxy)azetidin-1-yl)pyridin-3-yl)imidazo[1,2-a]pyridine-3-carbonitrile]	39 nM	
COc1ccc(O[C@@H]2CCN(c3ccc(-c4cc(OCC(C)(C)O)cc5ncc(C#N)n45)cn3)C2)cn1 [Example 95, (R)-7-(2-hydroxy-2-methylpropoxy)-5-(6-(3-((6-methoxypyridin-3-yl)oxy)pyrrolidin-1-yl)pyridin-3-yl)imidazo[1,2-a]pyridine-3-carbonitrile]	7 nM	
COc1ccc(O[C@@H]2CCN(c3ccc(-c4cc(OCC5(O)CC5)cc5ncc(C#N)n45)cn3)C2)cn1 [Example 96, (R)-7-((1-hydroxycyclopropyl)methoxy)-5-(6-(3-((6-methoxypyridin-3-yl)oxy)pyr-rolidin-1-yl)pyridin-3-yl)imidazo[1,2-a] pyridine-3-carbonitrile]	9 nM	
